System: cancerous tumor of the distal radius
Assay: Treatment of a canine with a cancerous tumor of the distal radius (X-ray)
Assay type: in vivo
Settings: after stanozolol administration, FIG. 1 before, FIG. 2 after, dose and route not given
Procedure: FIG. 1 is an X-ray depicting a cancerous tumor on the distal radius of a canine.
FIG. 2 is an X-ray depicting calcification of the cancerous tumor shown in FIG. 1 after treatment according to a preferred aspect of the disclosure.
A canine presenting with a cancerous tumor of the distal radius (see FIG. 1) was administered stanozolol.

Substance: stanozolol
- calcification of the cancerous tumor: the cancerous tumor calcified
